In brackets after ≈: the same amount, converted by molar mass.
Tested on: MDA-MB-231
Assay: Cytotoxicity against human MDA-MB-231 cells by MTT assay
Type: functional, cell-based

SMILES: C[C@H]1CC[C@H]2[C@@H]3CC(=O)[C@H](Cn4c(O)nc5c(O)ncnc54)[C@@]13CC2(C)C
- IC50: 8.87 µg/mL (≈ 23.9 µM)
